Source: EPA's ToxValDB 9.5 (doi:10.2903/j.efsa.2020.6058)
Values after ≈ are worked out from the molar mass of the structure shown.

Tests used:
[1] = tested on: Apis mellifera; settings: acute; oral; unspecified; mortality
[2] = tested on: Serinus canaria; settings: acute; oral; unspecified; mortality
[3] = tested on: Rattus norvegicus; settings: clinical signs
[4] = tested on: Neomysis kadiakensis; settings: chronic/long-term; duration: 28 days; development
[5] = tested on: Bibionidae; settings: chronic/long-term; duration: 28 days; development
[6] = tested on: Tagia sp.; settings: chronic/long-term; reproduction
[7] = tested on: Oncorhynchus mykiss
[8] = tested on: Mus musculus; settings: acute; oral; M; mortality
[9] = tested on: Anas platyrhynchos; settings: chronic/long-term
[10] = tested on: Hypoaspis aculeifer; settings: chronic/long-term; reproduction
[11] = tested on: Typhlodromus pyri; test: LR50; higher = less toxic; settings: not reported; mortality

CC1(C)C(C=C(Cl)Cl)[C@@H]1C(=O)O[C@@H](C#N)c1ccc(F)c(Oc2ccccc2)c1 (stereo partly drawn) [beta-Cyfluthrin]
LD50 [1]: 0.05 µg/piece
LD50 [2]: 170 mg/kg-day
NOAEL ([3]; reproduction developmental): 1.39 mg/kg-day
NOAEL ([3]; short-term, duration: 28 days): 1 mg/kg-day
NOAEL ([3]; subchronic, duration: 13 weeks, inhalation): 0.02 mg/kg-day
NOEC [4]: 0.00041 µg/L
NOEC [5]: 0.0057 µg/L
NOEC [6]: 0.825 mg/kg
LC50 ([7]; acute, mortality): 0.068 ng/mL (≈ 0.157 nM)
NOEC ([7]; chronic/long-term, duration: 58 days, growth): 0.0042 µg/L
LD50 [8]: 91 mg/kg-day
NOAEL [9]: 2.6 mg/kg-day
NOEC [10]: 0.97 mg/kg
LR50 [11]: 0.0025 g/ha
